In patent US12268683B2, “Compounds and methods for synergistic activation of M channels” (THE REGENTS OF THE UNIVERSITY OF CALIFORNIA, priority 2018, dated 2025):
Entries after “also recorded” stand apart in the source; their conditions may differ. Read-outs that look alike come from different tables or passages of the source.

Experiments:
Assay type in all cases: cell-based
KCNQ4 = KCNQ4 (Homo sapiens, UniProt P56696); assay: TEVC of homomeric KCNQ4 expressed in Xenopus oocytes
Source text: (§1) cRNA transcripts encoding human KCNA1, KCNQ1, KCNQ2, KCNQ3, KCNQ4, or KCNQ5 were generated by in vitro transcription using the T7 polymerase message machine kit (Thermo Fisher Scientific), after vector linearization, from cDNA sub-cloned into plasmids incorporating X. laevis β-globin 5′ and 3′ UTRs flanking the coding region to enhance translation and cRNA stability. cRNA was quantified by spectrophotometry. Mutant cDNAs were generated by site-directed mutagenesis using a QuikChange kit according to manufacturer's protocol (Stratagene, San Diego, Calif.) and corresponding cRNAs prepared as above. Defolliculated stage V and VI X. laevis oocytes (Ecocyte Bioscience, Austin, Tex.) were injected with Kv channel a subunit cRNAs (10 ng total per oocyte). Oocytes were incubated at 16° C. in Barth's saline solution (Ecocyte) containing penicillin and streptomycin, with daily washing, for 3-5 days prior to two-electrode voltage-clamp (TEVC) recording.
(§2) TEVC recording was performed at room temperature with an OC-725C amplifier (Warner Instruments, Hamden, Conn.) and pClamp10.2 software (Molecular Devices, Sunnyvale, Calif.) 3-5 days after cRNA injection as described in the section above. Oocytes were placed in a small-volume oocyte bath (Warner) and viewed with a dissection microscope. Chemicals were sourced from Sigma. Bath solution was (in mM): 96 NaCl, 4 KCl, 1 MgCl2, 1 CaCl2. 10 HEPES (pH 7.6). […] MTX (DMSO), sorbic acid (ethanol), and glutaconic acid (molecular grade H2O) were stored at −20° C. as 1 M stocks. Oleamide was stored as a 1 mM stock in ethanol at 4° C. Palmitic acid was conjugated with bovine serum albumin as a 1 mM stock and stored at −20° C. All compounds were diluted to working concentrations each experimental day. All compounds were introduced to the recording bath via gravity perfusion at a constant flow of 1 ml/min for 3 min prior to recording. Pipettes were of 1-2 MΩ resistance when filled with 3 M KCl. Currents were recorded in response to pulses between −80 and +40 mV at 20 mV intervals, or a single pulse to +40 mV, from a holding potential of −80 mV, to yield current-voltage relationships, current magnitude, and for quantifying activation rate. TEVC data analysis was performed with Clampfit10.2 (Molecular Devices) and Graphpad Prism software (GraphPad, San Diego, Calif., USA); values are stated as mean±SEM. Normalized tail currents were plotted versus prepulse voltage and fitted with a single Boltzmann function:
(§3) cRNA transcripts encoding human KCNQ2, KCNQ3, KCNQ4, KCNQ5 (Kv7.2-Kv7.5) were generated by in vitro transcription using the T7 polymerase mMessage mMachine kit (Thermo Fisher Scientific), after vector linearization, from cDNA sub-cloned into plasmids incorporating Xenopus laevis β-globin 5′ and 3′ UTRs flanking the coding region to enhance translation and cRNA stability. cRNA was quantified by spectrophotometry. Mutant KCNQ2 and KCNQ3 cDNAs were generated with site-directed mutagenesis using a QuikChange kit according to the manufacturer's protocol (Stratagene, San Diego, Calif.) and corresponding cRNAs prepared as above. Defolliculated stage V and VI Xenopus laevis oocytes (Ecocyte Bioscience, Austin, Tex.) were injected with KCNQ channel α subunit cRNAs (5-10 ng). The oocytes were incubated at 16° C. in Barth's saline solution (Ecocyte) containing penicillin and streptomycin, with daily washing, for 2-5 days prior to two-electrode voltage-clamp (TEVC) recording.
(§4) TEVC recording was performed at room temperature using a OC-725C amplifier (Warner Instruments, Hamden, Conn.) and pClamp8 software (Molecular Devices, Sunnyvale, Calif.) 2-5 days after cRNA injection as described in the section above. The oocytes were placed in a small-volume oocyte bath (Warner) and viewed with a dissection microscope. Unless otherwise stated, chemicals were sourced from Sigma. Bath solution was (in mM): 96 NaCl, 4 KCl, 1 MgCl2, 1 CaCl2, 10 HEPES (pH 7.6).

KCNQ2/3 = KCNQ2/3 (Homo sapiens, UniProt O43525+O43526); assay: TEVC of heteromeric KCNQ2/3 channels expressed in Xenopus laevis oocytes
Source text: as §1
as §2, with “function: […]” for “function:”
cRNA transcripts encoding human KCNQ2, KCNQ3, KCNQ4, KCNQ5 (Kv7.2-Kv7.5) were generated by in vitro transcription using the T7 polymerase mMessage mMachine kit (Thermo Fisher Scientific), after vector linearization, from cDNA sub-cloned into plasmids incorporating Xenopus laevis β-globin 5′ and 3′ UTRs flanking the coding region to enhance translation and cRNA stability. cRNA was quantified by spectrophotometry. Mutant KCNQ2 and KCNQ3 cDNAs were generated with site-directed mutagenesis using a QuikChange kit according to the manufacturer's protocol (Stratagene, San Diego, Calif.) and corresponding cRNAs prepared as above.

KCNQ3* (KCNQ3-A315T) = KCNQ3* (KCNQ3-A315T) (Homo sapiens, UniProt O43525, A315T); assay: TEVC of homomeric KCNQ3* expressed in Xenopus oocytes
Source text: as §1, §2, §3, §4

NCC(=O)O [glycine, reference compound]
effect on KCNQ4 (in words) (KCNQ4): unable to open | effect on KCNQ2/3 activity (in words) (KCNQ2/3): nor does it activate KCNQ2/3; also recorded: no effect | effect on KCNQ3* (in words) (KCNQ3* (KCNQ3-A315T)): no effects

CCCCCCCCC/C=C/C=O [(E)-2-dodecenal]
effect on KCNQ2/3 activity (in words) (KCNQ2/3): activated KCNQ2/3 | shift in voltage dependence of KCNQ2/3 activation (KCNQ2/3; 100 nM): > 10 mV | EC50 (KCNQ2/3; wild-type KCNQ2/3, read-out: EC50 of KCNQ2/3 activation by (E)-2-dodecenal): 60 ± 20 nM | effect on KCNQ3* (in words) (KCNQ3* (KCNQ3-A315T)): insensitive

CS(=O)(=O)N(CC(=O)O)c1cccc(F)c1 [3FMSG]
effect on KCNQ4 (in words) (KCNQ4): negligible effects | effect on KCNQ2/3 gating kinetics (KCNQ2/3): speeded KCNQ2/3 activation and slowed its deactivation | tau of KCNQ2/3 current decrease during washout (KCNQ2/3; 100 μM, −60 mV): 39 ± 10 s | tau of KCNQ2/3 current increase during wash-in (KCNQ2/3; 100 μM, −60 mV): 15 ± 3 s | EC50 (KCNQ2/3; Example 4, read-out: EC50, shift in voltage dependence of KCNQ2/3 activation (ΔV0.5act)): 51 ± 21 nM | relative Na+ permeability of KCNQ3* compared to K+ (KCNQ3* (KCNQ3-A315T)): induces a similar increase in relative Na^+ permeability | EC50 (KCNQ3* (KCNQ3-A315T); Example 4, read-out: EC50, ΔV0.5act of KCNQ3*): 18 ± 12 nM

NCC1(CC(=O)O)CCCCC1 [gabapentin, reference compound]
effect on KCNQ4 (in words) (KCNQ4): insensitive | effect on KCNQ2/3 activity (in words) (KCNQ2/3): potently activated | effect on KCNQ2/3 gating kinetics (KCNQ2/3): speeded KCNQ2/3 activation and slowed deactivation | potency on KCNQ2/3, fold more potent than GABA (KCNQ2/3): 200 fold | shift in voltage dependence of KCNQ2/3 activation (KCNQ2/3; 1 μM gabapentin): −9 mV | washout of effect on KCNQ2/3 (KCNQ2/3; after 2 minutes): < 50% | EC50 (KCNQ2/3; current at −60 mV, read-out: EC50 for KCNQ2/3 activation): 4.2 nM | shift of membrane potential (EM) of KCNQ2/3-expressing oocytes (KCNQ2/3; unclamped oocytes): > −10 mV | time to plateau of KCNQ2/3 current augmentation on wash-in (KCNQ2/3; −60 mV): ~2 min | KCNQ2/3 current fold-increase (KCNQ2/3; −60 mV, 10 nM): 3.5 fold | effect on KCNQ3* (in words) (KCNQ3* (KCNQ3-A315T)): activated | maximal fold increase in KCNQ3 current (KCNQ3* (KCNQ3-A315T); −60 mV): 4 fold | EC50 (KCNQ3* (KCNQ3-A315T); −60 mV, read-out: EC50 of KCNQ3* activation by gabapentin): 5.3 nM

CC(=O)c1c(O)c(C)c(O)c(Cc2c(O)c3c(c(C(=O)/C=C/c4ccccc4)c2O)OC(C)(C)C=C3)c1O [MTX, mallotoxin]
shift of midpoint voltage of KCNQ4 activation (KCNQ4; MTX 30 μM): −17 mV | EC50 (KCNQ4; −60 mV, read-out: EC50 of KCNQ4 activation): 20200 nM | effect on KCNQ2/3 gating kinetics (KCNQ2/3): speeded KCNQ2/3 activation and slowed deactivation | effect on KCNQ2/3 at low dose (KCNQ2/3; 1 μM alone): negligible effects | effect on voltage dependence of KCNQ2/3 activation, screen of M. oppositifolius leaf compounds (KCNQ2/3; 100 μM, MTX and palmitic acid 30 μM): negative-shifted | effect on KCNQ2/3 at +40 mV (KCNQ2/3; +40 mV): little effect | relative ion permeability of KCNQ2/3 compared to K+ (KCNQ2/3; MTX 30 μM, 100 mM ion): increased relative permeability of KCNQ2/3 to Na^+ and Cs^+, and decreased permeability to Rb^+ | shift of V0.5 of KCNQ2/3 activation (ΔV0.5) (KCNQ2/3; RTG 10 μM, MTX 30 μM, IVA 500 μM, alone or in combination): −17 mV | EC50 (KCNQ2/3; current at −60 mV, read-out: EC50 of KCNQ2/3 activation): 11500 nM | time to plateau of KCNQ2/3 activation on wash-in (KCNQ2/3; −60 mV): 5 min | KCNQ2/3 current fold-increase (KCNQ2/3; −60 mV, 100 μM MTX): seven-fold | KCNQ2/3 current fold-increase (KCNQ2/3; −60 mV, MTX 30 μM, IVA 500 μM alone or in combination): fivefold | shift of midpoint voltage of KCNQ3* activation (KCNQ3* (KCNQ3-A315T); MTX 30 μM): −9 mV | EC50 (KCNQ3* (KCNQ3-A315T); −60 mV, read-out: EC50 of KCNQ3* activation): 13000 nM
